Ends that are not written are not given here.
Key:
SUM149PT cells [1] = test: cells; assay type: cell-based, human
Description: The EN1-iPeps and iPep controls were first tested in SUM149PT cells carrying high EN1 expression. Cells were first treated with a full-length 29-mer peptide (iPep624) comprising the N-terminal, less conserved amino acid sequences, the hexamotif, and the C-terminal tail. As a control, the inventors generated the iPep624ΔHEX in which the hexamotif was mutated from the wild type (wt) WPAWVY (SEQ ID NO: 13) to the GAAGAG (SEQ ID NO: 15) sequence. These mutations were expected to dramatically abolish the activity of the peptide. Both peptides were included in the culture medium of the basal cancer cells in increasing (0-100 μM) concentrations and incubated for 8 hours at 37° C. Treated cells were first analyzed using the Cell Titer Glo assay, which monitors metabolic viability. […] This calculated value of IC50 is in the range of concentrations observed with other peptides delivered with CPPs.
All peptides were synthetized at the UNC High-Throughput Peptide Synthesis and Array Facility at UNC. Taxol, Rotenone and Halofuginone (Sigma-Aldrich, St Louis, Mo.) were dissolved in DMSO. A total of […] or 1×10^3 breast cells for peptide and drug treatment respectively, were seeded in 96-well plates. Cells were exposed for 8 hours to the peptide and 48 to 72 hours for drug treatment. The cell viability after peptide/drug treatment was assayed with the Cell Titer Glo (CTG) assay (Promega, Madison, Wis., USA).

SUM149PT cells [2] = test: Hoechst staining of apoptotic nuclei in SUM149PT cells; assay type: cell-based, human; conditions: 8 hours, compared with non-treated or iPep624ΔHEX-treated cells
Description: FIG. 3 Design of an EN1-specific interference peptide (EN1-iPep). (a) Molecular model of HOXA9 and PBX1 tertiary complex formation with the DNA (PDB: 1PUF). HOXA9 (hexapeptide “donor”) is shown in green; PBX (“partner”) in blue. The N-terminal peptide of HOXA9 (magenta) is essential to make contact with the DNA minor groove, as well as to stabilize the binding of HOXA9 with PBX1. The conserved tryptophan residue (W, arrow) is shown within the hexapeptide and it is responsible for anchoring the loop in PBX1. HD=Homeodomain. (b) A multiple alignment of the EN1-iPeps across species, with the consensus sequence of the iPep indicated below. […] Cells were treated for 8 hours and cell viability assessed by Cell Titer Glo assay (CTG). […] (e) Caspase 3 activity in SUM149PT cells measured after eight hours of iPep624 (SEQ ID NO: 5) or iPep624ΔHEX […]) treatment. […] Statistical significance was analyzed using the Student t-Test (*** p<0.001). […] Histogram represents the quantification of Hoechst positive cells per field of view at 40× magnification. […] Cell viability was assessed by Cell Titer Glo (CTG) assay and percentage of survival (%) was normalized to the control treated cells. […]
The EN1-iPeps and iPep controls were first tested in SUM149PT cells carrying high EN1 expression. […] Treated cells were first analyzed using the Cell Titer Glo assay, which monitors metabolic viability. […]

- IC50 (SUM149PT cells [1]; 8 h): 17.5 µM
Sequence: KKKRKVTDSQQPLVWPAWVYCTRYSDRPS [iPep624]
- cell viability (SUM149PT cells [1]; SUM149PT, 0-100 μM peptide, 8 hours): decreased cell viability
- sensitization to halofuginone (SUM149PT cells [1]; SUM149PT, co-treatment with 500 nM iPep): sensitized even more the basal-like breast cancer cells to halofuginone
- breast cancer cell death (SUM149PT cells [1]; SUM149PT, single agent): induced very potent breast cancer cell death
- number of apoptotic nuclei (SUM149PT cells [2]): significantly higher
